Measurements from patent US11667667B2, “Steroid derivative FXR agonist” (Chia Tai Tianqing Pharmaceutical Group Co., Ltd., priority 2016, dated 2023).

System: not listed separately
Assay: Liver-blood ratio experiment of mice via cassette dosing
Type: in vivo, mice (C57BL/6J)
Details: oral cassette 2 mg/kg, 0.5 h
Description: Liver-Blood Ratio Experiment of Mice Via Cassette Dosing
6 male mice (C57BL/6J) were grouped as an oral administration group. 5 kinds of the developed drugs were contained in the formulation, and intragastrical administration was performed at a dose of 2 mg/kg/compound (the vehicle was 0.5% HPMC aqueous solution). The five compounds were firstly and respectively dissolved in the vehicle, and sonicated or whirled to form a 1 mg/mL solution (clear solution or suspension), respectively; and then the solutions of the five compound were mixed in equal volumes (1:1:1:1:1, v:v:v:v:v) into a glass bottle. After intragastrical oral administration, plasma and liver tissue samples were collected from 3 animals at 0.5 h after administration; corresponding samples were collected from the other 3 animals at 3 h after administration. After collection, the liver tissue was homogenized by using ice-cold homogenization buffer (methanol:15 mM PBS buffer (pH 7.4)=1:2, v:v) based on the ratio of liver weight:homogenization buffer volume=1:3. Plasma and liver tissue samples were analyzed by using a five-in-one LC-MS/MS analysis method developed in advance. The concentrations of plasma and liver tissue homogenate were obtained, and the concentration ratios of liver tissue to plasma were calculated by using Excel.

SMILES | Concentration in liver | Concentration in plasma | Concentration ratio of liver to plasma
CC[C@H]1[C@@H](O)[C@@H]2[C@H](CC[C@]3(C)[C@@H]([C@H](C)CCOc4ccc(C(=O)O)cn4)CC[C@@H]23)[C@@]2(C)CC[C@@H](O)C[C@@H]12 [Example 22] | 1959 nM | 83 nM | 24
CC[C@H]1[C@@H](O)[C@@H]2[C@H](CC[C@]3(C)[C@@H]([C@H](C)CCOc4ncccc4C(=O)O)CC[C@@H]23)[C@@]2(C)CC[C@@H](O)C[C@@H]12 [Example 26] | 3904 nM | 387 nM | 10

Same assay, conditions: oral cassette 2 mg/kg, 3 h

SMILES | Concentration in liver | Concentration in plasma | Concentration ratio of liver to plasma
CC[C@H]1[C@@H](O)[C@@H]2[C@H](CC[C@]3(C)[C@@H]([C@H](C)CCOc4ccc(C(=O)O)cn4)CC[C@@H]23)[C@@]2(C)CC[C@@H](O)C[C@@H]12 [Example 22] | 701 nM | 45 nM | 16
CC[C@H]1[C@@H](O)[C@@H]2[C@H](CC[C@]3(C)[C@@H]([C@H](C)CCOc4ncccc4C(=O)O)CC[C@@H]23)[C@@]2(C)CC[C@@H](O)C[C@@H]12 [Example 26] | 358 nM | 18 nM | 20

Same assay, conditions: oral, same dosage, at 0.5 h

SMILES | drug concentration in the liver compared with control compound
CC[C@H]1[C@@H](O)[C@@H]2[C@H](CC[C@]3(C)[C@@H]([C@H](C)CCOc4ncccc4C(=O)O)CC[C@@H]23)[C@@]2(C)CC[C@@H](O)C[C@@H]12 [Example 26] | higher

Same assay, conditions: oral, same dosage, at 0.5 h and 3 h

SMILES | drug concentrations in the liver compared with control compound | liver/blood concentration ratios compared with control compound
CC[C@H]1[C@@H](O)[C@@H]2[C@H](CC[C@]3(C)[C@@H]([C@H](C)CCOc4ccc(C(=O)O)cn4)CC[C@@H]23)[C@@]2(C)CC[C@@H](O)C[C@@H]12 [Example 22] | higher | higher
CC[C@H]1[C@@H](O)[C@@H]2[C@H](CC[C@]3(C)[C@@H]([C@H](C)CCOc4ncccc4C(=O)O)CC[C@@H]23)[C@@]2(C)CC[C@@H](O)C[C@@H]12 [Example 26] | – | higher

System: not listed separately
Assay: Pharmacokinetics in mice administrated with single compound
Type: in vivo, mice (C57BL/6J)
Details: mice, oral administration at the same dosage
Description: Pharmacokinetics in Mice Administrated with Single Compound:
12 male mice (C57BL/6J) were randomly divided into two groups, i.e., 6 mice per group. […] Plasma (using K2-EDTA as anticoagulant) samples were taken at 0.083, 0.25, 0.5, 1, 2, 4, 6, 8 and 24 hours in the intravenous administration group after administration; and plasma samples were taken at 0.25, 0.5, 1, 2, 4, 6, 8 and 24 hours in the oral administration group after administration. For 6 animals in each group, blood samples were collected for 3 animals at one time point. The first batch of 3 animals was alternately sampled with the second batch of 3 animals. Plasma sample analysis was performed by using LC-MS/MS. The resultant plasma concentrations were plotted with repect to time, and PK parameters were calculated by using Phoenix WinNonlin 6.3.

SMILES | drug exposure compared with control compound INT-747 | peak concentration compared with control compound INT-747
CC[C@H]1[C@@H](O)[C@@H]2[C@H](CC[C@]3(C)[C@@H]([C@H](C)CCOc4cncc(C(=O)O)c4)CC[C@@H]23)[C@@]2(C)CC[C@@H](O)C[C@@H]12 [Example 11] | higher | higher
CC[C@H]1[C@@H](O)[C@@H]2[C@H](CC[C@]3(C)[C@@H]([C@H](C)CCOc4ccc(C(=O)O)cn4)CC[C@@H]23)[C@@]2(C)CC[C@@H](O)C[C@@H]12 [Example 22] | higher | close to
CC[C@H]1[C@@H](O)[C@@H]2[C@H](CC[C@]3(C)[C@@H]([C@H](C)CCOc4ncc(C(=O)O)cc4Cl)CC[C@@H]23)[C@@]2(C)CC[C@@H](O)C[C@@H]12 [Example 23] | higher | higher

Same assay, conditions: mouse, plasma; male C57BL/6J mice, oral 10 mg/kg

SMILES | AUC | Cmax | Tmax
CC[C@H]1[C@@H](O)[C@@H]2[C@H](CC[C@]3(C)[C@@H]([C@H](C)CCOc4cncc(C(=O)O)c4)CC[C@@H]23)[C@@]2(C)CC[C@@H](O)C[C@@H]12 [Example 11] | 5.17 µM·h | 1430 nM | 2 h

Same assay, conditions: mouse, plasma; male C57BL/6J mice, oral 10 mg/kg vs intravenous 2 mg/kg

SMILES | bioavailability
CC[C@H]1[C@@H](O)[C@@H]2[C@H](CC[C@]3(C)[C@@H]([C@H](C)CCOc4ccc(C(=O)O)cn4)CC[C@@H]23)[C@@]2(C)CC[C@@H](O)C[C@@H]12 [Example 22] | 34%

Biological target: T1, Glutathione-S-transferase-labeled FXR human protein (Homo sapiens, UniProt Q96RI1)
T1 construct: purchased Invitrogen
T1 sequence (Q96RI1 1-486): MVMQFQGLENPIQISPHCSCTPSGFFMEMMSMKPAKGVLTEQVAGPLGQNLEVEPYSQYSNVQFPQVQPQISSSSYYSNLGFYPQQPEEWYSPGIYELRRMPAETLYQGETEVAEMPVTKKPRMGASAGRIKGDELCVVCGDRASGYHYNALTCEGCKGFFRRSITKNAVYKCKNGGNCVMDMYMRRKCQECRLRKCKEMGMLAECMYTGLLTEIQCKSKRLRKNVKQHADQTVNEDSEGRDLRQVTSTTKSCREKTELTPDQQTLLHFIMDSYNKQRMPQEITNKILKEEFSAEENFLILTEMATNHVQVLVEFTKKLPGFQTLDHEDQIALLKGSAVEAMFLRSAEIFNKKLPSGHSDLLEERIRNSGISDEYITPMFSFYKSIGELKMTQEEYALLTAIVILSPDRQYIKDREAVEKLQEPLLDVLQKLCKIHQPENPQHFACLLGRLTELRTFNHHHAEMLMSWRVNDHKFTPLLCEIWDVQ
Assay: FXR biochemical experiment (AlphaScreen, coactivator recruitment)
Details: AlphaScreen, GST-FXR human protein + biotin-labeled steroid receptor coactivator; read-out: FXR enzyme activity EC50
Description: FXR Biochemical Experiment Experimental Purpose: The activation effect of the compound on FXR binding reaction was detected by AlphaScreen. […] Protein: Glutathione-S-transferase-labeled FXR human protein (Invitrogen) 2. Co-activator: Biotin-labeled steroid receptor coactivator (Anaspec) 3. […] Compound Dilution: The compound to be tested was prepared as a 40 μM DMSO solution, and then diluted 3-fold to 10 concentration points. The reference compound was prepared as a 400 μM DMSO solution, and then diluted 1.5-fold to 10 concentration points. The diluted DMSO solution was added to the wells of a 384-well plate in a volume of 150 nL per well. 2. […] 4. […] The operation during the experimental process was protected from light. The incubation was performed for 1 hour at room temperature. 5. […] The operation during the experimental process was protected from light. The incubation was performed for 1 hour at room temperature. 6. EC50 test: Envision was used with excitation at 680 nm to read the […] signals at 520-620 nm. 7. Analytical data: The data were analyzed via using Prism 5.0, and the EC50 values of the activation effects of the compounds were calculated.

SMILES | EC50
CC[C@H]1[C@@H](O)[C@@H]2[C@H](CC[C@]3(C)[C@@H]([C@H](C)CCN4CC(C(=O)O)CCC4=O)CC[C@@H]23)[C@@]2(C)CC[C@@H](O)C[C@@H]12 (stereo partly shown) [Example 1] | 900 nM
CC[C@@H]1C2C[C@H](O)CC[C@]2(C)[C@H]2CC[C@]3(C)[C@@H]([C@H](C)CCn4cc(C(=O)O)cn4)CC[C@H]3[C@@H]2[C@@H]1O (stereo partly shown) [Example 4] | 720 nM
CC[C@H]1[C@@H](O)[C@@H]2[C@H](CC[C@]3(C)[C@@H]([C@H](C)CCOc4cncc(C(=O)O)c4)CC[C@@H]23)[C@@]2(C)CC[C@@H](O)C[C@@H]12 [Example 11] | 30 nM
CC[C@H]1[C@@H](O)[C@@H]2[C@H](CC[C@]3(C)[C@@H]([C@H](C)CCOc4ncccc4C(=O)O)CC[C@@H]23)[C@@]2(C)CC[C@@H](O)C[C@@H]12 [Example 26] | 130 nM

Same assay, conditions: ratio of highest signal of the compound to that of the reference compound; read-out: FXR enzyme activity Efficacy

SMILES | Emax
CC[C@H]1[C@@H](O)[C@@H]2[C@H](CC[C@]3(C)[C@@H]([C@H](C)CCN4CC(C(=O)O)CCC4=O)CC[C@@H]23)[C@@]2(C)CC[C@@H](O)C[C@@H]12 (stereo partly shown) [Example 1] | 320%
CC[C@@H]1C2C[C@H](O)CC[C@]2(C)[C@H]2CC[C@]3(C)[C@@H]([C@H](C)CCn4cc(C(=O)O)cn4)CC[C@H]3[C@@H]2[C@@H]1O (stereo partly shown) [Example 4] | 334%
CC[C@H]1[C@@H](O)[C@@H]2[C@H](CC[C@]3(C)[C@@H]([C@H](C)CCOc4cncc(C(=O)O)c4)CC[C@@H]23)[C@@]2(C)CC[C@@H](O)C[C@@H]12 [Example 11] | 241%
CC[C@H]1[C@@H](O)[C@@H]2[C@H](CC[C@]3(C)[C@@H]([C@H](C)CCOc4ccc(C(=O)O)cn4)CC[C@@H]23)[C@@]2(C)CC[C@@H](O)C[C@@H]12 [Example 22] | 249%
CC[C@H]1[C@@H](O)[C@@H]2[C@H](CC[C@]3(C)[C@@H]([C@H](C)CCOc4ncc(C(=O)O)cc4Cl)CC[C@@H]23)[C@@]2(C)CC[C@@H](O)C[C@@H]12 [Example 23] | 248%
CC[C@H]1[C@@H](O)[C@@H]2[C@H](CC[C@]3(C)[C@@H]([C@H](C)CCOc4ncccc4C(=O)O)CC[C@@H]23)[C@@]2(C)CC[C@@H](O)C[C@@H]12 [Example 26] | 280%

Biological target: T2, FXR (FXR HEK 293T DA cell line) (Homo sapiens, UniProt Q96RI1)
T2 construct: expressed in transfected cells; host or cells: HEK 293T (FXR HEK 293T DA)
T2 sequence (Q96RI1 with tags, fused parts or gaps limits assumed): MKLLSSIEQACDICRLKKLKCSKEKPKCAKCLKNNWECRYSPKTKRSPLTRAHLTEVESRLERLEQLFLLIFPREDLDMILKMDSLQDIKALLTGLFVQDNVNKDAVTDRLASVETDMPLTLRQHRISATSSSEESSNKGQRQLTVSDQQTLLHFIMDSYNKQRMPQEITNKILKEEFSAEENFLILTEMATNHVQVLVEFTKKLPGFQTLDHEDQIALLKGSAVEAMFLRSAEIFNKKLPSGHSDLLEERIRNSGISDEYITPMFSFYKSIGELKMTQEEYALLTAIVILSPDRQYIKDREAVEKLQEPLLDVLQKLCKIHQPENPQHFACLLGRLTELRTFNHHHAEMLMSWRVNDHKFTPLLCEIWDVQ
Assay: FXR cell experiment (β-lactamase reporter gene, GeneBLAzer);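 as to FXR cell activity Efficacy: Emax relative to maximal signal of reference agonist chenodeoxycholic acid (CDCA)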
Type: cell-based
Details: FXR HEK 293T DA cells, β-lactamase reporter, 16 hours
Description: Compound Dilution: The compound to be tested was prepared as a 100 μM DMSO solution, and then the compound was diluted 3-fold to 10 concentration points. The reference compound was prepared as a 100 μM DMSO solution, and then diluted 1.3-fold to 10 concentration points. The diluted DMSO solution was added to the wells of a 384-well plate in a volume of 200 nL per well. 2. […] The 384-well microplate was incubated at 37° C., 5% CO2 for 16 hours. 4. 6 μL of 1 mM LiveBLAzer™-FRET B/G (CCF4-AM) substrate was mixed with 60 μL of B solution and 934 μL of C solution, and added to the wells of the 384-well plate in a volume of 8 μL per well. […] The 384-well microplate was incubated in dark for 2 hours at room temperature. 6. […] 7.

SMILES | EC50
CC[C@H]1[C@@H](O)[C@@H]2[C@H](CC[C@]3(C)[C@@H]([C@H](C)CCN4CC(C(=O)O)CCC4=O)CC[C@@H]23)[C@@]2(C)CC[C@@H](O)C[C@@H]12 (stereo partly shown) [Example 1] | 17900 nM
CC[C@@H]1C2C[C@H](O)CC[C@]2(C)[C@H]2CC[C@]3(C)[C@@H]([C@H](C)CCn4cc(C(=O)O)cn4)CC[C@H]3[C@@H]2[C@@H]1O (stereo partly shown) [Example 4] | 1870 nM
CC[C@H]1[C@@H](O)[C@@H]2[C@H](CC[C@]3(C)[C@@H]([C@H](C)CCOc4cncc(C(=O)O)c4)CC[C@@H]23)[C@@]2(C)CC[C@@H](O)C[C@@H]12 [Example 11] | 100 nM

Same assay, conditions: HEK-293T; read-out: FXR cell activity Efficacy

SMILES | Emax
CC[C@H]1[C@@H](O)[C@@H]2[C@H](CC[C@]3(C)[C@@H]([C@H](C)CCN4CC(C(=O)O)CCC4=O)CC[C@@H]23)[C@@]2(C)CC[C@@H](O)C[C@@H]12 (stereo partly shown) [Example 1] | 134%
CC[C@@H]1C2C[C@H](O)CC[C@]2(C)[C@H]2CC[C@]3(C)[C@@H]([C@H](C)CCn4cc(C(=O)O)cn4)CC[C@H]3[C@@H]2[C@@H]1O (stereo partly shown) [Example 4] | 131%
CC[C@H]1[C@@H](O)[C@@H]2[C@H](CC[C@]3(C)[C@@H]([C@H](C)CCOc4cncc(C(=O)O)c4)CC[C@@H]23)[C@@]2(C)CC[C@@H](O)C[C@@H]12 [Example 11] | 132%
CC[C@H]1[C@@H](O)[C@@H]2[C@H](CC[C@]3(C)[C@@H]([C@H](C)CCOc4ncc(C(=O)O)cc4Cl)CC[C@@H]23)[C@@]2(C)CC[C@@H](O)C[C@@H]12 [Example 23] | 150%
